Patent publication US20260356819A1, “OXOISOINDOLINYL-SUBSTITUTED […] DERIVATIVE AND USE THEREOF” (GLUETACS THERAPEUTICS (SHANGHAI) CO., LTD., priority 2023, published 2026)

Columns and labels:
Type in all cases: cell-based
Details in all cases: compounds at 50 nM and 500 nM
[1] = molecular target: T1, IKZF3 (Homo sapiens, UniProt Q96SW2+Q9UKT9); assay: Western blot degradation of IKZF3 in hPBMCs (24 h)
T1 construct: The supernatant was aspirated as the extracted total cell protein; endogenous in cells; host or cells: human peripheral blood mononuclear cells (hPBMCs)
Method in brief: (§1)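 Degradation in primary human PBMCs after 24 h compound exposure at 50 and 500 nM. Western blot band intensities, normalised to an internal control protein, expressed as % protein remaining relative to DMSO.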

[2] = molecular target: T2, CK1α (Homo sapiens, UniProt P48729+Q96SW2); assay: Western blot degradation of CK1α in hPBMCs (24 h)
T2 construct: The supernatant was aspirated as the extracted total cell protein; endogenous in cells; host or cells: human peripheral blood mononuclear cells (hPBMCs)
Method in brief: as §1

[3] = molecular target: T3, IKZF1 (Homo sapiens, UniProt Q13422+Q96SW2); assay: Western blot degradation of IKZF1 in hPBMCs (24 h)
T3 construct: The supernatant was aspirated as the extracted total cell protein; endogenous in cells; host or cells: human peripheral blood mononuclear cells (hPBMCs)
Method in brief: as §1

[4] = molecular target: T4, IKZF2 (Homo sapiens, UniProt Q96SW2+Q9UKS7); assay: Western blot degradation of IKZF2 in hPBMCs (24 h)
T4 construct: The supernatant was aspirated as the extracted total cell protein; endogenous in cells; host or cells: human peripheral blood mononuclear cells (hPBMCs)
Method in brief: as §1

[5] = molecular target: T5, GSPT1 (Homo sapiens, UniProt P15170+Q96SW2); assay: Western blot degradation of GSPT1 in hPBMCs (24 h)
T5 construct: The supernatant was aspirated as the extracted total cell protein; endogenous in cells; host or cells: human peripheral blood mononuclear cells (hPBMCs)
Method in brief: as §1

[6] = molecular target: T6, WEE1 (Homo sapiens, UniProt P30291+Q96SW2); assay: Western blot degradation of WEE1 in hPBMCs (24 h)
T6 construct: The supernatant was aspirated as the extracted total cell protein; endogenous in cells; host or cells: human peripheral blood mononuclear cells (hPBMCs)
Method in brief: as §1

T2 sequence (P48729 whole entry): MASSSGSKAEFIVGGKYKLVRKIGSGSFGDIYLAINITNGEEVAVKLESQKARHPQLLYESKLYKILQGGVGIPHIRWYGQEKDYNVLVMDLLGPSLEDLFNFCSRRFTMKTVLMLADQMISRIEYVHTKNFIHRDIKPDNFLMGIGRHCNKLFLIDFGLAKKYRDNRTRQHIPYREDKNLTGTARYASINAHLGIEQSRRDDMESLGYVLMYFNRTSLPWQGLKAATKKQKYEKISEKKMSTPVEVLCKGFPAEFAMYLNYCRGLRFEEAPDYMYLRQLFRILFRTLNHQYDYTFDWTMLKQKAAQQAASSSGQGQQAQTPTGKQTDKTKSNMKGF
T2 sequence (Q96SW2 whole entry): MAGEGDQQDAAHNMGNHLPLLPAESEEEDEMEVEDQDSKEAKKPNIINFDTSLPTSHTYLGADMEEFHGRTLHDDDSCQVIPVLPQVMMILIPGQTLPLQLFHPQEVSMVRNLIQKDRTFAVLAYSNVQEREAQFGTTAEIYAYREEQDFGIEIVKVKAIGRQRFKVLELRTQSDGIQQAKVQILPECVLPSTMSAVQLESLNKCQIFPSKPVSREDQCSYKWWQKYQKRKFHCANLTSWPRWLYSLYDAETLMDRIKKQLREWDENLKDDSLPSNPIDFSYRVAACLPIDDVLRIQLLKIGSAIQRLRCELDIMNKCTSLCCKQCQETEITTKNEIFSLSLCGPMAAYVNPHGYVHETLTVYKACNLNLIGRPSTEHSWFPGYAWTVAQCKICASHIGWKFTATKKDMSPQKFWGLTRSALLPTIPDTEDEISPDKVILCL
T2 sequence (Q16531 whole entry partner): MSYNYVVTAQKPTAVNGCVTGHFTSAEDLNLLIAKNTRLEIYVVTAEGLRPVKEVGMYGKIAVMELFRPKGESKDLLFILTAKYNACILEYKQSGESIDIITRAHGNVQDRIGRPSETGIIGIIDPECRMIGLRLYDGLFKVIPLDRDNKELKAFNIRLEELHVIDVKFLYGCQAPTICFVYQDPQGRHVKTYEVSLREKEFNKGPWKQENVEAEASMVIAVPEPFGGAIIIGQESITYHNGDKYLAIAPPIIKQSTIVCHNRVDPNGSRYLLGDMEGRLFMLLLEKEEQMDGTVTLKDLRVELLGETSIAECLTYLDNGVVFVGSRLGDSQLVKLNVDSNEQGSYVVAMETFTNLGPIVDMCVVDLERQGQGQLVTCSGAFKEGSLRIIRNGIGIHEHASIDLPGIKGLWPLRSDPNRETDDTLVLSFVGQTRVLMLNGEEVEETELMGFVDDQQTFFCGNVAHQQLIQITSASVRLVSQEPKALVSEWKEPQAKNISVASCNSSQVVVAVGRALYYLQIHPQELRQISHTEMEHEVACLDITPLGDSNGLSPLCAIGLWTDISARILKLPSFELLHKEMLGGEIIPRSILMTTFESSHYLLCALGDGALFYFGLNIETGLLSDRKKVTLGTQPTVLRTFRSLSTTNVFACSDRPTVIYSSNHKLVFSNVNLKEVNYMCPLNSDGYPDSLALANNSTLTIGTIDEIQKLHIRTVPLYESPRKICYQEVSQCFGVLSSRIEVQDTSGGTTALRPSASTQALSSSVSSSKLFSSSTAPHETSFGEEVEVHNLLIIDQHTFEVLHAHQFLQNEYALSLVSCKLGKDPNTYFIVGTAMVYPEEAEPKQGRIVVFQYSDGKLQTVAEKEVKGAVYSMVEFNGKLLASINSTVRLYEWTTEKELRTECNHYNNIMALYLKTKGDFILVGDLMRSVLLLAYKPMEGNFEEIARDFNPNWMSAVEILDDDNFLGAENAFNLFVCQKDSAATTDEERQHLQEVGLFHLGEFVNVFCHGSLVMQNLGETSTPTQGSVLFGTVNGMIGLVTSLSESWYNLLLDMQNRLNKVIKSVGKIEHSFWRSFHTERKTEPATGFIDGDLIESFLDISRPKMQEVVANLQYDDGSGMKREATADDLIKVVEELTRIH
T4 sequence (Q9UKS7 whole entry): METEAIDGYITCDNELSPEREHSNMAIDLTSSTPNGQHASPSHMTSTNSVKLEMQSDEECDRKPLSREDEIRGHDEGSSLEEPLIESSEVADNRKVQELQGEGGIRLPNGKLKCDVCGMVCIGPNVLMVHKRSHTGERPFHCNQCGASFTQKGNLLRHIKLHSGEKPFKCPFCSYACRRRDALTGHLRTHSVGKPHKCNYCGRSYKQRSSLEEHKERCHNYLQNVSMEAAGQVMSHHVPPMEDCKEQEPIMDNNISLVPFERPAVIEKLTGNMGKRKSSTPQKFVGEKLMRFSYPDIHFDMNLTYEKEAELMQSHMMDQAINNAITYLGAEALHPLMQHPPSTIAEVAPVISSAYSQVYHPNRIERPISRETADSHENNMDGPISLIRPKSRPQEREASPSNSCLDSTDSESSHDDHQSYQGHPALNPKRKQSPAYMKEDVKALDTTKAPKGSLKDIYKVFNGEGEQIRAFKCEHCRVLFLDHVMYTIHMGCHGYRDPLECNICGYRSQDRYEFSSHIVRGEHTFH
T4 sequence (Q96SW2 whole entry): as the sequence (Q96SW2 whole entry) above
T4 sequence (Q16531 whole entry partner): as the sequence (Q16531 whole entry partner) above
T6 sequence (P30291 whole entry): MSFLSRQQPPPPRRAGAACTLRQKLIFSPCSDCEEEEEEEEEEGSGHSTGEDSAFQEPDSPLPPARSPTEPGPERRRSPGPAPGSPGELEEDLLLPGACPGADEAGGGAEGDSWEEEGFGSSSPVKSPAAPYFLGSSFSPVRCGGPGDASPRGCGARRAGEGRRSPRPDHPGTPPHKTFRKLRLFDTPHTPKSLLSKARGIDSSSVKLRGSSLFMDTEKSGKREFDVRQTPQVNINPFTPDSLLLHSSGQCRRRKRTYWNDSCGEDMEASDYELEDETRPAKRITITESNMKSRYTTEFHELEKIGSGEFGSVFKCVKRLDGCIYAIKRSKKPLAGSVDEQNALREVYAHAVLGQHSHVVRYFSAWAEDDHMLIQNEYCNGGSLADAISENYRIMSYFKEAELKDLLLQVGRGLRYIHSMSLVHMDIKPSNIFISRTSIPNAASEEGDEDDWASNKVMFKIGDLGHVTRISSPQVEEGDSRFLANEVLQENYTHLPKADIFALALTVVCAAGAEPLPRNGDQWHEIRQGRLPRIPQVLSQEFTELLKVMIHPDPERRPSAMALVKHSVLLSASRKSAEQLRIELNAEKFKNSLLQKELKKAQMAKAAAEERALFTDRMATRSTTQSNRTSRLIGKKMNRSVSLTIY
T6 sequence (Q96SW2 whole entry): as the sequence (Q96SW2 whole entry) above
T6 sequence (Q16531 whole entry partner): as the sequence (Q16531 whole entry partner) above
T5 sequence (P15170 whole entry): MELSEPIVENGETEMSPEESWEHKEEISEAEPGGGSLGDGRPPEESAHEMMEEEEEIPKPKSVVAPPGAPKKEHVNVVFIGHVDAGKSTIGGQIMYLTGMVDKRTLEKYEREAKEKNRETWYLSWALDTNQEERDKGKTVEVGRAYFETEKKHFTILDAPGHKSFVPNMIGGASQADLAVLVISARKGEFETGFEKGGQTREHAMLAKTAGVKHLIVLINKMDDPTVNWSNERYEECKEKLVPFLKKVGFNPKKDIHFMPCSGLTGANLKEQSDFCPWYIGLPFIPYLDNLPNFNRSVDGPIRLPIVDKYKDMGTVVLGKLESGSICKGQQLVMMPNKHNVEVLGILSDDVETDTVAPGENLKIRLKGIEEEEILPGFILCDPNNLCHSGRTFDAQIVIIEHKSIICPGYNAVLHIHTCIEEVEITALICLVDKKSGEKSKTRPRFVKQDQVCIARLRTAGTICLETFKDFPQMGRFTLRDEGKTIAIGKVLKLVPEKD
T5 sequence (Q96SW2 whole entry): as the sequence (Q96SW2 whole entry) above
T5 sequence (Q16531 whole entry partner): as the sequence (Q16531 whole entry partner) above
T3 sequence (Q13422 whole entry): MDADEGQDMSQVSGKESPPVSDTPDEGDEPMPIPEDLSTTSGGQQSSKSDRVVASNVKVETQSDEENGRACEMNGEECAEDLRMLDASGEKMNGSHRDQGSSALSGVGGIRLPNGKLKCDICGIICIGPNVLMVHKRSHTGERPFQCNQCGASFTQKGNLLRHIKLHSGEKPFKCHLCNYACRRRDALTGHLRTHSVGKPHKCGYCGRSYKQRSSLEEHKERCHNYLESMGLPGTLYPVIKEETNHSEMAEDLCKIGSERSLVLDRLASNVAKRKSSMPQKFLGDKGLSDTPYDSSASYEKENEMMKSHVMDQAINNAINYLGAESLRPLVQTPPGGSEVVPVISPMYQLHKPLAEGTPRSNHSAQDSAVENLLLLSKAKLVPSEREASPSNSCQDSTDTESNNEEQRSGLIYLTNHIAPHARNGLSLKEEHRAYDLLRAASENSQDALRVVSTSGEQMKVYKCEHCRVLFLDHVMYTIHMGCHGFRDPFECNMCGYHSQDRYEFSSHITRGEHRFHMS
T3 sequence (Q96SW2 whole entry): as the sequence (Q96SW2 whole entry) above
T3 sequence (Q16531 whole entry partner): as the sequence (Q16531 whole entry partner) above

| SMILES | IKZF3 substrate protein remaining % [1] | CK1α substrate protein remaining % [2] | IKZF1 substrate protein remaining % [3] | IKZF2 substrate protein remaining % [4] | GSPT1 substrate protein remaining % [5] | WEE1 substrate protein remaining % [6] |
| --- | --- | --- | --- | --- | --- | --- |
| O=C1CCN(N2C(=O)c3ccc(CN4CCN(c5nccc(F)c5F)CC4)cc3C2=O)C(=O)N1 [GT-07162, 5-((4-(3,4-difluoropyridin-2-yl)piperazin-1-yl)methyl)-2-(2,4-dioxotetrahydropyrimidin-1(2H)-yl)isoindoline-1,3-dione] | B (80%< substrate protein remaining % ≤100%) | A (0% ≤ substrate protein remaining % ≤80%) | B (80%< substrate protein remaining % ≤100%) | A (0% ≤ substrate protein remaining % ≤80%) | A (0% ≤ substrate protein remaining % ≤80%) | B (80%< substrate protein remaining % ≤100%) |
| O=C1CCN(N2C(=O)c3ccc(CN4CCN(c5ccncc5Br)CC4)cc3C2=O)C(=O)N1 [GT-07163, 5-((4-(3-bromopyridin-4-yl)piperazin-1-yl)methyl)-2-(2,4-dioxotetrahydropyrimidin-1(2H)-yl)isoindoline-1,3-dione] | B (80%< substrate protein remaining % ≤100%) | B (80%< substrate protein remaining % ≤100%) | B (80%< substrate protein remaining % ≤100%) | A (0% ≤ substrate protein remaining % ≤80%) | A (0% ≤ substrate protein remaining % ≤80%) | B (80%< substrate protein remaining % ≤100%) |
| O=C1CCN(N2C(=O)c3ccc(CN4CCN(c5ccncc5F)CC4)cc3C2=O)C(=O)N1 [GT-07164, 2-(2,4-dioxotetrahydropyrimidin-1(2H)-yl)-5-((4-(3-fluoropyridin-4-yl)piperazin-1-yl)methyl)isoindoline-1,3-dione] | B (80%< substrate protein remaining % ≤100%) | B (80%< substrate protein remaining % ≤100%) | B (80%< substrate protein remaining % ≤100%) | A (0% ≤ substrate protein remaining % ≤80%) | A (0% ≤ substrate protein remaining % ≤80%) | B (80%< substrate protein remaining % ≤100%) |
| O=C1CCN(N2C(=O)c3ccc(CN4CCN(c5ccncc5Cl)CC4)cc3C2=O)C(=O)N1 [GT-07165, 5-((4-(3-chloropyridin-4-yl)piperazin-1-yl)methyl)-2-(2,4-dioxotetrahydropyrimidin-1(2H)-yl)isoindoline-1,3-dione] | B (80%< substrate protein remaining % ≤100%) | B (80%< substrate protein remaining % ≤100%) | B (80%< substrate protein remaining % ≤100%) | A (0% ≤ substrate protein remaining % ≤80%) | A (0% ≤ substrate protein remaining % ≤80%) | B (80%< substrate protein remaining % ≤100%) |
| O=C1CCN(N2C(=O)c3ccc(CN4CCN(c5ccnc(Cl)c5F)CC4)cc3C2=O)C(=O)N1 [GT-07166, 5-((4-(2-chloro-3-fluoropyridin-4-yl)piperazin-1-yl)methyl)-2-(2,4-dioxotetrahydropyrimidin-1(2H)-yl)isoindoline-1,3-dione] | B (80%< substrate protein remaining % ≤100%) | B (80%< substrate protein remaining % ≤100%) | B (80%< substrate protein remaining % ≤100%) | A (0% ≤ substrate protein remaining % ≤80%) | A (0% ≤ substrate protein remaining % ≤80%) | B (80%< substrate protein remaining % ≤100%) |
| O=C1CCN(N2C(=O)c3ccc(CN4CCN(c5ccnc(Br)c5F)CC4)cc3C2=O)C(=O)N1 [GT-07167, 5-((4-(2-bromo-3-fluoropyridin-4-yl)piperazin-1-yl)methyl)-2-(2,4-dioxotetrahydropyrimidin-1(2H)-yl)isoindoline-1,3-dione] | B (80%< substrate protein remaining % ≤100%) | B (80%< substrate protein remaining % ≤100%) | B (80%< substrate protein remaining % ≤100%) | A (0% ≤ substrate protein remaining % ≤80%) | A (0% ≤ substrate protein remaining % ≤80%) | B (80%< substrate protein remaining % ≤100%) |
| O=C1CCN(N2C(=O)c3ccc(CN4CCN(c5ccnc(Cl)c5Br)CC4)cc3C2=O)C(=O)N1 [GT-07168, 5-((4-(3-bromo-2-chloropyridin-4-yl)piperazin-1-yl)methyl)-2-(2,4-dioxotetrahydropyrimidin-1(2H)-yl)isoindoline-1,3-dione] | B (80%< substrate protein remaining % ≤100%) | B (80%< substrate protein remaining % ≤100%) | B (80%< substrate protein remaining % ≤100%) | A (0% ≤ substrate protein remaining % ≤80%) | A (0% ≤ substrate protein remaining % ≤80%) | B (80%< substrate protein remaining % ≤100%) |
| O=C1CCN(N2Cc3cc(CN4CCN(c5ccnc(Cl)c5Cl)CC4)ccc3C2=O)C(=O)N1 [GT-07169, 1-(5-((4-(2,3-dichloropyridin-4-yl)piperazin-1-yl)methyl)-1-oxoisoindolin-2-yl)dihydropyrimidine-2,4(1H,3H)-dione] | B (80%< substrate protein remaining % ≤100%) | B (80%< substrate protein remaining % ≤100%) | B (80%< substrate protein remaining % ≤100%) | B (80%< substrate protein remaining % ≤100%) | B (80%< substrate protein remaining % ≤100%) | A (0% ≤ substrate protein remaining % ≤80%) |
| O=C1CCN(N2Cc3cc(CN4CCN(c5c(Cl)cncc5Br)CC4)ccc3C2=O)C(=O)N1 [GT-07170, 1-(5-((4-(3-bromo-5-chloropyridin-4-yl)piperazin-1-yl)methyl)-1-oxoisoindolin-2-yl)dihydropyrimidine-2,4(1H,3H)-dione] | B (80%< substrate protein remaining % ≤100%) | B (80%< substrate protein remaining % ≤100%) | A (0% ≤ substrate protein remaining % ≤80%) | B (80%< substrate protein remaining % ≤100%) | B (80%< substrate protein remaining % ≤100%) | A (0% ≤ substrate protein remaining % ≤80%) |
| O=C1CCN(N2Cc3cc(CN4CCN(c5c(F)cncc5Cl)CC4)ccc3C2=O)C(=O)N1 [GT-07171, 1-(5-((4-(3-chloro-5-fluoropyridin-4-yl)piperazin-1-yl)methyl)-1-oxoisoindolin-2-yl)dihydropyrimidine-2,4(1H,3H)-dione] | B (80%< substrate protein remaining % ≤100%) | B (80%< substrate protein remaining % ≤100%) | B (80%< substrate protein remaining % ≤100%) | B (80%< substrate protein remaining % ≤100%) | B (80%< substrate protein remaining % ≤100%) | A (0% ≤ substrate protein remaining % ≤80%) |
